Here are results for two compounds from ChEMBL document CHEMBL4765408, “Design and synthesis of benzylidenecyclohexenones as TrxR inhibitors displaying high anticancer activity and inducing ROS, apoptosis, and autophagy” (Eur J Med Chem, 2020).

For one series, the species on record is Rattus norvegicus. The experiment in a line: Inhibition of purified rat liver TrxR measured after 75 mins in presence of NADPH by DTNB based assay.
The subject of series [1] is MDA-MB-231. The experiment in a line: Antiproliferative activity against human MDA-MB-231 cells after 72 hrs by sulforhodamine B assay. It counts as functional, cell-based. To be noted: MDA-MB-231, 72 h.
The next series relates to MCF7. Briefly: Antiproliferative activity against human MCF7 cells after 72 hrs by sulforhodamine B assay. It counts as functional, cell-based. To be noted: MCF7, 72 h. In general terms: In SRB staining, fixed cells bind dye roughly in proportion to their protein.
A further series relates to A549. Briefly: Antiproliferative activity against human A549 cells after 72 hrs by sulforhodamine B assay. It counts as functional, cell-based. The settings on record: A549, 72 h.
The subject of the next series is KB. The experiment in a line: Antiproliferative activity against human KB cells after 72 hrs by sulforhodamine B assay. It counts as functional, cell-based.
Series [2] is described as follows: Antiproliferative activity against human KB-VIN cells after 72 hrs by sulforhodamine B assay. To be noted: KBVIN. It counts as functional, cell-based.
The nature of series [3]: Inhibition of TrxR in human MDA-MB-231 cells measured after 72 hrs by colorimetric method. It counts as cell-based.
Series [4] has as its system MDA-MB-231. The experiment in a line: Down regulation of TrxR1 expression in human MDA-MB-231 cells at 1.8 uM measured after 72 hrs by Western blot analysis. It counts as functional, cell-based. A general note: In western blotting, separated proteins are transferred to a membrane and probed.
Series [5] has as its system MDA-MB-231. Briefly: Induction of reactive oxygen species generation in human MDA-MB-231 cells measured after 24 hrs by DCFH-DA probe based flow cytometry. It counts as functional, cell-based. Background: In flow cytometry, cells or beads pass a laser one at a time.
The subject of series [6] is MDA-MB-231. Briefly: Induction of apoptosis in human MDA-MB-231 cells at 1.8 uM measured after 72 hrs by APC-Annexin V/7-AAD staining based flow cytometry relative to control. It counts as functional.
Series [7] concerns MDA-MB-231. The experiment in a line: Induction of apoptosis in human MDA-MB-231 cells assessed as activation of caspase-3 cleavage at 1.8 uM measured after 72 hrs by Western blot analysis. It counts as functional, cell-based.
The test system of series [8] is MDA-MB-231. Briefly: Induction of autophagy in human MDA-MB-231 cells transfected with mRFP-eGFP-LC3 assessed as accumulation of autophagosomes by measuring increase in […] fluorescence at 1.8 uM measured after 24 hrs by confocal laser scanning microscopy. It counts as functional, cell-based.
Series [9] relates to MDA-MB-231. The experiment in a line: Induction of autophagy in human MDA-MB-231 cells transfected with mRFP-eGFP-LC3 assessed as accumulation of autolysosome by measuring increase in red fluorescence at 1.8 uM measured after 24 hrs by confocal laser scanning microscopy. It counts as functional, cell-based.
Series [10] relates to MDA-MB-231. Briefly: Induction of autophagy in human MDA-MB-231 cells transfected with mRFP-eGFP-LC3 assessed as increase in LC3-II expression at 1.8 uM measured after 72 hrs by Western blot analysis. It counts as functional, cell-based.
Series [11] deals with MDA-MB-231. Briefly: Antitumor activity against human MDA-MB-231 cells xenografted in BALB/c nude mouse assessed as reduction in tumor weight at 10 mg/kg, ip measured at 2 days interval for 21 days relative to control. It counts as functional. To be noted: time 2 day. Set-up: scale not given: the % may be the effect or the level left.
For series [12], the system named is MDA-MB-231. The experiment in a line: Antitumor activity against human MDA-MB-231 cells xenografted in BALB/c nude mouse assessed as reduction in tumor volume at 10 to 25 mg/kg, ip measured at 2 days interval for 21 days. It counts as functional, organism-based. The settings on record: dose 10-25 mg/kg, time 2.0 day.
Series [13] deals with MDA-MB-231. Briefly: Down regulation of TrxR1 expression in human MDA-MB-231 cells measured after 72 hrs by Western blot analysis. It counts as functional, cell-based.
Series [14] deals with MDA-MB-231. The experiment in a line: Induction of apoptosis in human MDA-MB-231 cells at 0.2 uM measured after 72 hrs by APC-Annexin V/7-AAD staining based flow cytometry relative to control. It counts as functional.
For series [15], the system named is MDA-MB-231. Briefly: Induction of apoptosis in human MDA-MB-231 cells at 0.6 uM measured after 72 hrs by APC-Annexin V/7-AAD staining based flow cytometry relative to control. It counts as functional.
Series [16] concerns MDA-MB-231. Briefly: Induction of apoptosis in human MDA-MB-231 cells assessed as reduction in Bcl-2 expression measured after 72 hrs by Western blot analysis. It counts as functional, cell-based.
For series [17], the system named is MDA-MB-231. Briefly: Induction of apoptosis in human MDA-MB-231 cells assessed as reduction in Bcl-XL expression measured after 72 hrs by Western blot analysis. It counts as functional, cell-based.
In series [18] the test system is MDA-MB-231. Briefly: Induction of apoptosis in human MDA-MB-231 cells assessed as activation of caspase-3 cleavage at 0.2 to 1.8 uM measured after 72 hrs by Western blot analysis. It counts as functional, cell-based. To be noted: dose 0.2-1.8 µM.
The subject of series [19] is MDA-MB-231. The experiment in a line: Induction of autophagy in human MDA-MB-231 cells transfected with mRFP-eGFP-LC3 assessed as accumulation of autophagosomes by measuring increase in […] fluorescence measured after 24 hrs by confocal laser scanning microscopy. It counts as functional, cell-based.
The test system of series [20] is MDA-MB-231. Briefly: Induction of autophagy in human MDA-MB-231 cells transfected with mRFP-eGFP-LC3 assessed as accumulation of autolysosome by measuring increase in red fluorescence measured after 24 hrs by confocal laser scanning microscopy. It counts as functional, cell-based.
The test system of series [21] is MDA-MB-231. The experiment in a line: Induction of autophagy in human MDA-MB-231 cells transfected with mRFP-eGFP-LC3 assessed as decrease in p62 expression at 0.2 to 1.8 uM measured after 72 hrs by Western blot analysis. It counts as functional, cell-based. To be noted: dose 0.2-1.8 µM.
The subject of series [22] is MDA-MB-231. The experiment in a line: Induction of autophagy in human MDA-MB-231 cells transfected with mRFP-eGFP-LC3 assessed as decrease in LC3-I expression at 0.2 to 1.8 uM measured after 72 hrs by Western blot analysis. It counts as functional, cell-based. The settings on record: dose 0.2-1.8 µM.
Series [23] deals with MDA-MB-231. The experiment in a line: Induction of autophagy in human MDA-MB-231 cells transfected with mRFP-eGFP-LC3 assessed as increase in LC3-II expression at 0.2 to 1.8 uM measured after 72 hrs by Western blot analysis. It counts as functional, cell-based. To be noted: dose 0.2-1.8 µM.
Series [24] in a line: Acute toxicity in ICR mouse assessed as survival at 488.3 mg/kg, ip administered as single dose measured for 14 days. The settings on record: in vivo, time 14 day, read-out: Activity. It counts as organism-based.
Series [25] is described as follows: Acute toxicity in ICR mouse assessed as survival at 390.6 mg/kg, ip administered as single dose measured for 14 days. It counts as organism-based. To be noted: in vivo, time 14 day, read-out: Activity.
Series [26] is described as follows: Acute toxicity in ICR mouse assessed as survival at 312.5 mg/kg, ip administered as single dose measured for 14 days. It counts as organism-based. The settings on record: in vivo, time 14 day, read-out: Activity.
Series [27] in a line: Acute toxicity in ICR mouse assessed as survival at 250 mg/kg, ip administered as single dose measured for 14 days. It counts as organism-based. The settings on record: in vivo, time 14 day, read-out: Activity.
Series [28] can be described thus: Acute toxicity in ICR mouse assessed as survival at 200 mg/kg, ip administered as single dose measured for 14 days. The settings on record: in vivo, time 14 day, read-out: Activity. It counts as organism-based.
A short description of series [29]: Acute toxicity in ICR mouse assessed as change in body weight at 200 mg/kg, ip administered as single dose measured for 14 days. It counts as organism-based. The settings on record: in vivo, 336 h, time 14 day.
Series [30] in a line: Acute toxicity in ICR mouse assessed as abnormality in drinking at 200 mg/kg, ip administered as single dose measured for 14 days. To be noted: in vivo, 336 h, time 14 day. It counts as organism-based.
Series [31] is described as follows: Acute toxicity in ICR mouse assessed as abnormality in eating at 200 mg/kg, ip administered as single dose measured for 14 days. It counts as organism-based. The settings on record: in vivo, 336 h, time 14 day.
A short description of series [32]: Acute toxicity in ICR mouse assessed as death at 200 mg/kg, ip administered as single dose measured for 14 days. It counts as organism-based. To be noted: in vivo, 336 h, time 14 day.
The nature of series [33]: Acute toxicity in ip dosed ICR mouse administered as single dose measured for 14 days. It counts as organism-based. The settings on record: in vivo, time 14 day.
The test system of series [34] is MDA-MB-231. The experiment in a line: Antitumor activity against human MDA-MB-231 cells xenografted in BALB/c nude mouse assessed as reduction in tumor weight at 25 mg/kg, ip measured at 2 days interval for 21 days relative to control. It counts as functional. Set-up: scale not given: the % may be the effect or the level left. To be noted: time 2 day.

The structures appear in SMILES notation. Activity calls are given as the source filed them. The calls are words filed in the database; no cut-off is given here.

What is called IC50 is the concentration needed to halve the response being measured. Usually LD50 stands for the dose expected to kill half of the subjects tested.

Consider `COc1cc(/C=C/C(=O)N2CCC=CC2=O)cc(OC)c1OC` [PIPLARTINE], for which, in the series filed under Rattus norvegicus, the inhibition result was “Active”. For the same compound, the concentration for half-maximal inhibition (IC50) with MDA-MB-231 [1] came out at 3720 nM; in the series with MCF7 it was 4400 nM; in the series with A549 it was 3200 nM; in the series on KB, 1670 nM; in [2], 7850 nM; in series [3], 1520 nM. For the same compound, the outcome in the series with MDA-MB-231 [4], in the series with MDA-MB-231 [5], in the series on MDA-MB-231 [6], with MDA-MB-231 [7], in the series on MDA-MB-231 [8] and in the series on MDA-MB-231 [9] was Active. Also, in the series with MDA-MB-231 [10], the result was Active. The Activity in the series on MDA-MB-231 [11] is reported as 44.9%.

With `O=C1C=CCC/C1=C\c1ccc(OC(F)(F)F)cc1`, the result with MDA-MB-231 [12], in the series with MDA-MB-231 [5], in the series with MDA-MB-231 [18], with MDA-MB-231 [21], in the series with MDA-MB-231 [22] and in the series on MDA-MB-231 [23] was Active. In addition, the inhibition result in the series listed under Rattus norvegicus is “Active”. Further, the IC50 in the series with MDA-MB-231 [1] is 590 nM; in the series with MCF7, 1040 nM; with A549, 440 nM; with KB it was 530 nM; in [2], 840 nM; in series [3] it was 120 nM. The Activity entry was “Dose-dependent effect” with MDA-MB-231 [13]; 20.7% with MDA-MB-231 [14]; 45.6% with MDA-MB-231 [15]; 56.8% in the series on MDA-MB-231 [6]; “Dose-dependent effect” with MDA-MB-231 [16]; “Dose-dependent effect” in the series on MDA-MB-231 [17]. The Activity entry in the series on MDA-MB-231 [19] was “Dose-dependent effect”; in the series with MDA-MB-231 [20], “Dose-dependent effect”; in series [29] it was “Non-Toxic”; in series [30], “Non-Toxic”; in series [31], “Non-Toxic”; in series [32] it was “Non-Toxic”. For the same compound, in the series on MDA-MB-231 [34], the Activity was found to be 63.3%. Moreover, the survival at 336 h was 10% in [24]; 30% in [25]; 70% in series [26]; 90% in series [27]; 100% in series [28]. In addition, the LD50 at 336 h in series [33] worked out at 366 mg/kg.
